# Ends that are not written are not given here.
# Tests used:
# [1] = tested on: FGF21-induced ERK phosphorylation in human KLB overexpressing 293T HEK cells (293/KLB); experiment: Peptide antagonism of FGF21-induced pERK, AlphaLISA; assay type: cell-based; conditions: 293/KLB cells; fixed dose of FGF21, 10 min at 37° C; n = 3
# Protocol: (§1) 293T HEK cells expressing KLB (or KL) or Hep3B cells were plated to 5–6 x 10^4 cells/well density in 96-well cell culture plate coated with poly-D-Lysine (Corning). The cells were serum starved for four hours in 0.1% BSA fraction V (ThermoFisher) containing media prior to treatment with protein and/or an antagonist peptide at the mentioned concentrations for 10 min at 37° C. For the antagonist assays, a chosen fixed dose within the range of 0.8–30 nM (depending on the cell type) of FGF21 or FGF19 stimulant was added to all the wells. BaF3 cells expressing human KLB/FGFR1c or human KLB/FGFR4-1c chimera were seeded at 5 × 10^5 cells/well density in 96-well cell culture plate and serum-starved overnight. FGF21/19 analogs were diluted in 0.02% Tween-20 containing RPMI1640 medium and the cells were treated for 15 min at 37° C. Following the respective cell treatments, the cells were lysed (with lysis buffer provided in the kit) for 10 min at room temperature on a shaker and the lysate was mixed with reaction mixture (consisting of reaction buffer, activation buffer, acceptor and donor beads provided in the kit). Phosphorylated ERK1/2 (pERK) levels were subsequently recorded by EnSpire Alpha or Envision Multilabel plate reader (Perkin Elmer). The cell assays corresponding to 293/KLB or Hep3B cells were carried out with AlphaLISA SureFire Ultra pERK1/2 (Thr 202/Tyr204) kit (Perkin Elmer), and BaF3 cells were done using AlphaScreen pERK1/2 (Thr202/Tyr204) kit (Perkin Elmer).
# All cellular phosphorylation data were analyzed using 3-parameter non-linear regression curve in GraphPad Prism 7. Graphs are represented as relative maximal (100%) response of the positive control. All other test analog signals were adjusted accordingly as % values. For antagonistic assays, the difference between the p-ERK signal at baseline (fixed dose of FGF-stimulation, no antagonist peptide added) and the highest dose of the positive control, either FGF21^18−181, 21C25 or 19C26 for respective assay, was set to 100%. Similarly, for an agonist assay, the difference between the p-ERK signal of baseline (only cell culture medium, no agonist) and the highest dose of the positive control either FGF21 in 293/KLB cells or FGF19 in Hep3B cells was used to establish 100% response. Each peptide and protein analog was tested in triplicates in three independent experiments (n = 3), and normalized graphs plotted are expressed as mean ± SD unless otherwise noted.
# The C-terminal region of FGF21 binds to KLB as previously implied by FGF21^18−181 antagonism. […] For comparative purposes, we utilized an in vitro assay in which we monitored dose-dependent attenuation of FGF-induced ERK phosphorylation in human KLB overexpressing 293T HEK cells (293/KLB).
# [2] = tested on: FGF19 signaling in 293/KLB cells; experiment: Peptide antagonism of FGF19-induced pERK, AlphaLISA; assay type: cell-based, human; conditions: fixed dose of FGF19, 10 min at 37° C, n = 3
# Protocol: as §1, with “Following the respective cell treatments, the cells were lysed (with lysis buffer provided in the kit) for 10 min at room temperature on a shaker and the lysate was mixed with reaction mixture (consisting of reaction buffer, activation buffer, acceptor and donor beads provided in the kit).” left out, “The cell assays corresponding to 293/KLB or Hep3B cells were carried out with AlphaLISA SureFire Ultra pERK1/2 (Thr 202/Tyr204) kit (Perkin Elmer), and BaF3 cells were done using AlphaScreen pERK1/2 (Thr202/Tyr204) kit (Perkin Elmer).” left out
# (§2) All cellular phosphorylation data were analyzed using 3-parameter non-linear regression curve in GraphPad Prism 7. […] Each peptide and protein analog was tested in triplicates in three independent experiments (n = 3), and normalized graphs plotted are expressed as mean ± SD unless otherwise noted.
# lean (C57BL/6J) mice = experiment: In vivo peptide antagonism study, cFos and EGR1 mRNA in pancreas and eWAT; set-up: species or system mouse; conditions: WAT and pancreas
# Excerpt: All animal studies were approved by and performed according to the guidelines of the Institutional Animal Care and Use Committee of the University of Cincinnati (Cincinnati, USA). Eight-week old male C57BL/6J mice (Jackson Laboratories) were given ad libitum access to either a chow diet (lean mice), or a high-fat high-sugar diet (HFD, DIO mice) containing 58% kcal from fat (Research Diets, catalog# D12331). For DIO mice, animals were maintained on the HFD for a minimum of 3 months prior to initiation of the pharmacological studies. The mice were maintained at 22 °C on a 12-h light–dark cycle with free access to water. Before the beginning of the studies, mice were randomized into treatment groups according to body weight. All injections and tests were performed during the light cycle with a group size of n = 8.
# Mice were administered vehicle, FGF21 (1 mg/kg), or FGF19 (1 mg/kg) alone or in combination with 19C26,A^26 (30 mg/kg), (dosed 15 min prior to FGF21 or FGF19 administration) via sc injections. One-hour post FGF21 or FGF19 dosing, the mice were sacrificed and their plasma, pancreas, and epididymal white adipose tissue (eWAT) were harvested for analyses. Total RNA was isolated from pancreatic and eWAT tissues using Trizol phenol-chloroform extraction (Invitrogen, Cat#155596026) and purified using an RNeasy mini (Cat#74104) and on-column DNAse digest (Cat#79254) kits (Qiagen). Following reverse transcription, levels of cFos and early growth response-1 (EGR1) mRNA levels were subsequently probed by quantitative PCR (ThermoFisher) and analyzed by ΔΔCT method.
# Statistical analyses for in vivo experiments were performed on data using a one- (Figure 5A,B and 5D) or two-way (Figure 5C) ANOVA followed by Tukey post hoc multiple comparison analysis. All results are presented as mean ± SEM, n = 5–8, and P < 0.05 was considered significant. Group size estimations were based upon a power calculation to minimally yield an 80% chance to detect a significant difference in body weight of P < 0.05.
# [3] = tested on: FGF19 signaling in Hep3B cells; experiment: Peptide antagonism of FGF19 signaling in Hep3B cells; assay type: cell-based, human; conditions: n = 3
# Protocol: as §1, with “Following the respective cell treatments, the cells were lysed (with lysis buffer provided in the kit) for 10 min at room temperature on a shaker and the lysate was mixed with reaction mixture (consisting of reaction buffer, activation buffer, acceptor and donor beads provided in the kit).” left out, “The cell assays corresponding to 293/KLB or Hep3B cells were carried out with AlphaLISA SureFire Ultra pERK1/2 (Thr 202/Tyr204) kit (Perkin Elmer), and BaF3 cells were done using AlphaScreen pERK1/2 (Thr202/Tyr204) kit (Perkin Elmer).” left out
# as §2
# [4] = tested on: signaling of FGF1 in 293/KLB cells; experiment: Peptide antagonism of FGF1 signaling in 293/KLB cells; assay type: cell-based, human; conditions: data not shown
# [5] = tested on: signaling of FGF23 in 293/KL cells overexpressing human Klotho; experiment: Peptide antagonism of FGF23 signaling in 293/KL cells; assay type: cell-based; conditions: data not shown
# 293/KLB cells = experiment: Agonist pERK AlphaLISA assay in 293/KLB cells; assay type: cell-based, human; conditions: 10 min at 37° C, n = 3
# Protocol: as §1
# All cellular phosphorylation data were analyzed using 3-parameter non-linear regression curve in GraphPad Prism 7. Graphs are represented as relative maximal (100%) response of the positive control. All other test analog signals were adjusted accordingly as % values. […] Each peptide and protein analog was tested in triplicates in three independent experiments (n = 3), and normalized graphs plotted are expressed as mean ± SD unless otherwise noted.
# human FGFR1c/KLB = molecular target: T1, human FGFR1c/KLB (Homo sapiens, UniProt P11362+Q86Z14); experiment: AlphaScreen cell-free binding assay, displacement of biotinylated FGF21; conditions: peptides compete with FGF21 for human FGFR1/KLB complex, mean, n = 2, NC = Not Calculated due to negligible activity at the tested concentrations
# T1 construct: while adding human soluble KLB generated a signal; purchased R&D Systems
# T1 sequence (Q86Z14 1-996 limits assumed): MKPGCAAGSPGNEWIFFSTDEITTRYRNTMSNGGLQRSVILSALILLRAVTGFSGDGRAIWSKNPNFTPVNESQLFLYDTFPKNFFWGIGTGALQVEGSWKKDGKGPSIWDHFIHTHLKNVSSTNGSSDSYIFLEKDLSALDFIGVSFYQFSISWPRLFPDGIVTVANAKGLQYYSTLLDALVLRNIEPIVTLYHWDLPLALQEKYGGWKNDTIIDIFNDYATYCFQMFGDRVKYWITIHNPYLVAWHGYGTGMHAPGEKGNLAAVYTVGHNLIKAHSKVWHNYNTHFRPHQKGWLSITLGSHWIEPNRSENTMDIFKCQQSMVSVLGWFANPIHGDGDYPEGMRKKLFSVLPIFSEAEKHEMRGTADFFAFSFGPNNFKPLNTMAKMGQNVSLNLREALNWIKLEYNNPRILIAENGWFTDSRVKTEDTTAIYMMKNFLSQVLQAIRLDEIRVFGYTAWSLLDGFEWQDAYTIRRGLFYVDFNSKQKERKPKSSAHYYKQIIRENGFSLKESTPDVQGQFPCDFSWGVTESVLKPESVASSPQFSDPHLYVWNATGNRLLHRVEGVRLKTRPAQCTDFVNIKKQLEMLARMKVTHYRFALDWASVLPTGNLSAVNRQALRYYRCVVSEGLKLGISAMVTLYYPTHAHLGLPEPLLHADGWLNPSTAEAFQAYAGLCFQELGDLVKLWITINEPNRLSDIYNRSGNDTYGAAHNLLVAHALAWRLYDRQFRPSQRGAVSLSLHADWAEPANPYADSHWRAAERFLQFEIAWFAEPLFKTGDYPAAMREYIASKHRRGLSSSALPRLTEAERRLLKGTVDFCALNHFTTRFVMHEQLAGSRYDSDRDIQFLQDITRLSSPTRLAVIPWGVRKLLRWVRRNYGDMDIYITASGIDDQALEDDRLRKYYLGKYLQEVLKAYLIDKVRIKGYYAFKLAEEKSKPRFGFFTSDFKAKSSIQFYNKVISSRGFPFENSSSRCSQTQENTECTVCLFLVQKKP
# T1 sequence (P11362 22-376 partner limits assumed): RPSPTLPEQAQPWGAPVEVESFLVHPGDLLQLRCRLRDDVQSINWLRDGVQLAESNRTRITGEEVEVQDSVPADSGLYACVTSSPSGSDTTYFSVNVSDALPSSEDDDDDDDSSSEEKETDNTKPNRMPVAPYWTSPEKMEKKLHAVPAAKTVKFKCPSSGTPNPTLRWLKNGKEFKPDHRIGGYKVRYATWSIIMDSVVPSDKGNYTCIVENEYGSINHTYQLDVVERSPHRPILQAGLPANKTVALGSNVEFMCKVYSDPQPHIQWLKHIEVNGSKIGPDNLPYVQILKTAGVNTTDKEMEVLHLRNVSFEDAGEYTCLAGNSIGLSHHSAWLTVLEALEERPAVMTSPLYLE
# Protocol: Biotinylated FGF21 was coupled to Streptavidin-coated donor beads (AlphaScreen technology, Perkin Elmer), and the ectodomains of human FGFR4 fused to Fc (R&D Systems) or FGFR1c fused to Fc (R&D Systems) were coupled to Protein A acceptor beads (AlphaScreen technology, Perkin Elmer). Human KLB protein (R&D Systems) was added to the mixture of biotinylated-FGF21-Streptavidin donor beads and FGFR-Fc-Protein A acceptor beads, bringing the beads in close proximity producing a signal, in the presence of 5 μg/ml Heparin and 0.1% BSA. Increasing doses of FGF21 C-terminal peptides were added and if their binding to the receptor complex were to take place, the biotinylated FGF21 would be displaced to consequently decrease the signal. The EnVision Multilabel Plate Reader (Perkin Elmer) was used to quantify the emitted light signal at 570 nm.
# Supplementary file mmc1.pdf: Multimedia component 1 Table S1. Nomenclature for FGF protein and C-terminal peptide analogs. Table S2. Receptor binding of C-terminal FGF21 Ala-scan peptides. IC50 values (μM, mean, n = 2) with fold-change for 21C25 Ala-scan peptides versus native peptide in a cell free AlphaScreen binding assay where the 21C25 Ala peptides competed with FGF21 to associate with the human FGFR1/KLB complex. NC denotes where IC50 values were Not Calculated due to negligible activity at the tested concentrations.
substance,measurement,setting,value
19C25: FGF19-based C-terminal peptide of 25 amino acids (LETDSMDPFGLVTGLEAVRSPSFEK-NH2),"Antagonism of FGF21 signaling (pERK), in words",[1],comparable to FGF21^18−181 in their antagonistic effect
"19C26,A^26: 19C26 with alanine substitution of the terminal lysine; most potent peptide antagonist (PLETDSMDPFGLVTGLEAVRSPSFEA-NH2)","Antagonism of FGF21 signaling (pERK), in words",[1],at least twenty-fold greater potency
same,"Antagonism of FGF19 signaling (pERK), in words",[2],at least twenty-fold greater potency
same,"cFos and EGR1 mRNA levels, peptide antagonist alone",lean (C57BL/6J) mice; 30 mg/kg sc,no effect on cFos and EGR1 mRNA levels
same,Block of FGF19- or FGF21-stimulated cFos and EGR1 gene induction,"lean (C57BL/6J) mice; antagonist 30 mg/kg sc 15 min before FGF19 or FGF21 1 mg/kg sc, one hour post dosing",completely eliminated the ability of FGF19 or FGF21 to stimulate gene induction
"19C26: FGF19-based C-terminal peptide of 26 amino acids (169-194), C-terminal amide (PLETDSMDPFGLVTGLEAVRSPSFEK-NH2)","Antagonism of FGF21 signaling (pERK), in words",[1],comparable to FGF21^18−181 in their antagonistic effect
same,"Antagonism of FGF19 signaling (pERK), in words",[2],blocked FGF19 activity comparably to that of FGF21
same,"Antagonism of FGF19 signaling (pERK), in words",[3],blocked FGF19 activity comparably to that of FGF21
same,"Attenuation of FGF1 signaling, in words",[4],unable to attenuate signaling of FGF1
same,"Attenuation of FGF23 signaling, in words",[5],unable to attenuate signaling
"21C22: C-terminal FGF21 peptide of 22 residues (VGSSDPLSMVGPSQGRSPSYAS-NH2; UniProt Q9NSA1 188-209, looked up, fragment)","Antagonism of FGF21 signaling (pERK), in words",[1],had no effect within the dose range examined
FGF2,"pERK agonist activity, in words",293/KLB cells,picomolar activities
"FGF19: Human FGF19 (#O95750: 23–216, designated 1–194)","pERK agonist activity, in words",293/KLB cells,nanomolar potencies
same,"cFos and EGR1 transcriptional activity, FGF alone","lean (C57BL/6J) mice; 1 mg/kg sc, one hour",induced robust transcriptional activity in each tissue
PPDVGSSDPLSMVGPSQARSPSYAS-NH2 [174 G],IC50,human FGFR1c/KLB,150 nM
PPDVGSSDPLSMVGPSQGASPSYAS-NH2 [175 R],IC50,human FGFR1c/KLB,50 nM
PPDVGSSDPLSMVGPSQGRSPSYAA-NH2 [181 S],IC50,human FGFR1c/KLB,50 nM
PPDVGSSDPLSMVGPSQGRSPSYAS-NH2 [21C25],IC50,human FGFR1c/KLB,150 nM
